Experiment [1] has as its target T1, Adenosine receptor A1 (Homo sapiens) (UniProt P30542).
T1 sequence (whole entry): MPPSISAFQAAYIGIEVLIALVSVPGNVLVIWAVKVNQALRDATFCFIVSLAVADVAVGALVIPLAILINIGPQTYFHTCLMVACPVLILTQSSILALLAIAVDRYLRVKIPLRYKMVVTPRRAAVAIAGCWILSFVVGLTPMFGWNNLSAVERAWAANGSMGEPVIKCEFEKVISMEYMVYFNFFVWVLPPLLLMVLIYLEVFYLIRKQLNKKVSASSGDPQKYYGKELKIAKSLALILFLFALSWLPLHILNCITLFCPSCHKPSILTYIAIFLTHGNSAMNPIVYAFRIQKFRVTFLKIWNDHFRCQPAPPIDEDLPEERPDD
Nature of the experiment: Agonist activity at recombinant human A1 receptor expressed in CHO cells assessed as inhibition of forskolin-induced cAMP accumulation at 10 uM preincubated for 20 mins prior to forskolin-stimulation measure after 5 mins by liquid scintillation counting method. The experiment is classed as functional, cell-based. On the technique in general: cAMP levels reflect the balance of adenylyl cyclase and phosphodiesterase activity.

Experiment [2] has as its target T2, Adenosine receptor A2b (Homo sapiens) (UniProt P29275).
T2 sequence (whole entry): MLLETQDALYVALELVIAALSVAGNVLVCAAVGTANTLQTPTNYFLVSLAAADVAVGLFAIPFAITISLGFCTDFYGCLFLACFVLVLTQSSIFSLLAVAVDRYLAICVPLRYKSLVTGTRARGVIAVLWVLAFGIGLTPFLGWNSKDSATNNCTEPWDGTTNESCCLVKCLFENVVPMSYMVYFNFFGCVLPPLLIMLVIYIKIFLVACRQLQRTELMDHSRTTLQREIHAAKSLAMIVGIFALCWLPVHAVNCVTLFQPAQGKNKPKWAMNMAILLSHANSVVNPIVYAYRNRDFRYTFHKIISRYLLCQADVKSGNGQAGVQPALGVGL
Briefly: Displacement of [3H]PSB-603 from human A2B receptor expressed in CHO cell membrane at 0.3 uM relative to control. The experiment is classed as cell membranes. In general terms: Displacement assays read how much labelled ligand stays bound in the presence of the test substance.

The target in experiment [3] is T1, Adenosine receptor A1 (Homo sapiens). Nature of the experiment: Agonist activity at recombinant human A1 receptor expressed in CHO cells assessed as inhibition of forskolin-induced cAMP accumulation at 1 uM preincubated for 20 mins prior to forskolin-stimulation measure after 5 mins by liquid scintillation counting method. The experiment is classed as functional, cell-based.

The target of experiment [4] is T3, Adenosine receptor A2a (Homo sapiens, UniProt P29274). Nature of the experiment: Displacement of [3H]MSX from human A2A receptor measured after 30 mins by liquid scintillation counting method.
T3 sequence (P29274 whole entry): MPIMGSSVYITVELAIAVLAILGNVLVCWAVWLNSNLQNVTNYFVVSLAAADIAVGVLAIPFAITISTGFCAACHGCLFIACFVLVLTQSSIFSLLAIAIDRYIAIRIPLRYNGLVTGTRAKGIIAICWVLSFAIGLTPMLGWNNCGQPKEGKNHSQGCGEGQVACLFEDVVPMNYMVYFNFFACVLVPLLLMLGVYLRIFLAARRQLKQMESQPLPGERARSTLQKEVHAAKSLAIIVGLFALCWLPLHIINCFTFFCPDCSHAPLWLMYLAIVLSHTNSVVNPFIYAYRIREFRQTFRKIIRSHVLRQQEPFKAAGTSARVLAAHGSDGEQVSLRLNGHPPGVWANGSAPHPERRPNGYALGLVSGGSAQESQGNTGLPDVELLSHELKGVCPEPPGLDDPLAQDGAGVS
In experiment [5] the target is T4, Amine oxidase [flavin-containing] A (Homo sapiens, UniProt P21397).
T4 sequence (P21397 whole entry): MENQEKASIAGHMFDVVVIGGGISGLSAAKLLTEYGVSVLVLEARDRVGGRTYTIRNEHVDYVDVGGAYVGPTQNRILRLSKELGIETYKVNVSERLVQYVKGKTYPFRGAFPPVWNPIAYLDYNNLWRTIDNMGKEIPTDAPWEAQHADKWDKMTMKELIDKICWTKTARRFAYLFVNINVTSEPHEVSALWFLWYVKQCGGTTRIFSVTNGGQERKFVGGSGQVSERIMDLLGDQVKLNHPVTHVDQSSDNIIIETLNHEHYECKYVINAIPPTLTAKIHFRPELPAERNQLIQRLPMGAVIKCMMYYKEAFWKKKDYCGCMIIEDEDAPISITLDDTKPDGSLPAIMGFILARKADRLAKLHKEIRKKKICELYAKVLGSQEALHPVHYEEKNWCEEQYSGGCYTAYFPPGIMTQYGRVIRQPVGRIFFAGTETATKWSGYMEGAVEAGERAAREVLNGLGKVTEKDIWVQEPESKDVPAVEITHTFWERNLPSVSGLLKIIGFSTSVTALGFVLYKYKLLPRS
Briefly: Inhibition of recombinant human MAO-A expressed in baculovirus infected BTI insect cells preincubated for 30 mins followed by addition of p-tyramine as substrate measured over 45 mins by Amplex Red MAO assay.

Experiment [6] deals with T3, Adenosine receptor A2a. Nature of the experiment: Agonist activity at recombinant human A2A receptor expressed in CHO cells assessed as increase in forskolin-induced cAMP level at 10 uM preincubated for 20 mins prior to forskolin-stimulation measure after 5 mins by liquid scintillation counting method. The experiment is classed as functional, cell-based.
The target of experiment [7] is T3, Adenosine receptor A2a. Nature of the experiment: Agonist activity at recombinant human A2A receptor expressed in CHO cells assessed as increase in forskolin-induced cAMP level at 1 uM preincubated for 20 mins prior to forskolin-stimulation measure after 5 mins by liquid scintillation counting method. The experiment is classed as functional, cell-based.
The target in another experiment is T5, Adenosine receptor A1 (Rattus norvegicus, UniProt P25099).
T5 sequence (P25099 whole entry): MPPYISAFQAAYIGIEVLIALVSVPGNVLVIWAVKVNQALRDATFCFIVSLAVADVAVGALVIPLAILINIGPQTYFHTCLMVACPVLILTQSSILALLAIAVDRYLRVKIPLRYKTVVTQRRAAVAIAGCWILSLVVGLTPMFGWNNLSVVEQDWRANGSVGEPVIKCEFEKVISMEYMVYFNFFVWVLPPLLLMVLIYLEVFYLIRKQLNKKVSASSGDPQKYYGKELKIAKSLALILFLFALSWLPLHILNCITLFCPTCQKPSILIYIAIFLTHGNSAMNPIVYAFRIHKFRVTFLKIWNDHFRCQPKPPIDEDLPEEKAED
Briefly: Displacement of [3H]CCPA from A1 receptor in rat brain cortex membranes by liquid scintillation counting method. The experiment is classed as cell membranes.

Experiment [8] concerns the target T2, Adenosine receptor A2b (Homo sapiens). Briefly: Displacement of [3H]PSB-603 from human A2B receptor expressed in CHO cell membrane at 1 uM relative to control. The experiment is classed as cell membranes.
Experiment [9] deals with T6, Adenosine receptor A1 (Rattus norvegicus) (UniProt P25099).
T6 sequence (whole entry): T5 sequence (P25099 whole entry)
Briefly: Displacement of [3H]CCPA from A1 receptor in rat brain cortex membranes at 1.5 uM by liquid scintillation counting method. The experiment is classed as cell membranes.

For experiment [10], the target named is T7, Adenosine receptor A3 (Homo sapiens) (UniProt P0DMS8).
T7 sequence (whole entry): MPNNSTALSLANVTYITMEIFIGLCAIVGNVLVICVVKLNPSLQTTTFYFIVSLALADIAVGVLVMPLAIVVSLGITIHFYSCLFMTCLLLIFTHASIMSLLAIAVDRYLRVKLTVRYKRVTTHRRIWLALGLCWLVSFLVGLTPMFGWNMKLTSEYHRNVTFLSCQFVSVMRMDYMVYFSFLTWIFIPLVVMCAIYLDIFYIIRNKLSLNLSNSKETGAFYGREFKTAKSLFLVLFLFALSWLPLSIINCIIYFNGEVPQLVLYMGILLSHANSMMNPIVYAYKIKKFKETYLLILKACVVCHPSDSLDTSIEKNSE
Briefly: Displacement of [3H]PSB-11 from human A3 receptor expressed in CHO cell membrane at 10 uM by liquid scintillation counting method relative to control relative to control. The experiment is classed as cell membranes.

The target in experiment [11] is T1, Adenosine receptor A1 (Homo sapiens). Nature of the experiment: Displacement of [3H]CCPA from human A1 receptor expressed in CHO cell membrane at 10 uM by liquid scintillation counting method. The experiment is classed as cell membranes.

Active and inactive are the calls of the source. The rule behind the calls is not given here. Bounds are passed on as bounds.

Broadly, the Ki is a measure of affinity in units of concentration, obtained from inhibition or displacement. Low readings indicate higher affinity, high ones lower affinity. As usually defined, the IC50 is the concentration needed to halve the response being measured. On to `Cn1c(=O)c2c(nc3n2CCN([C@@H]2CCCc4ccccc42)C3)n(C)c1=O`, for which the result (in [1]; in experiment [3]; on Adenosine receptor A2a [6]; at Adenosine receptor A2a [7]) was inactive. In experiment [2], this compound displayed an Activity of 1%. Besides, the Ki on Adenosine receptor A2a [4] stood at 0.595 µM; at Adenosine receptor A1, 100 nM. Also, in experiment [5], the IC50 was more than 10 µM.

As to `Cn1c(=O)c2c(nc3n2CCN(c2cccc(Cl)c2)C3)n(C)c1=O`, the Activity in experiment [8] came out at 23%; in experiment [9], 37%; in experiment [10], 20%; in experiment [11], 37%. In addition, on Adenosine receptor A2a [4], the affinity corresponds to a Ki of 8.86 µM. The IC50 in experiment [5] was more than 10 µM.

The values above are taken from ChEMBL document CHEMBL4428125, “8-Substituted 1,3-dimethyltetrahydropyrazino[2,1-f]purinediones: Water-soluble adenosine receptor antagonists and monoamine oxidase B inhibitors” (Bioorg Med Chem, 2016).
